Laboratory results published in US20240226191A1, “COMPOSITIONS AND METHODS FOR TREATING DISEASE” (MICROBA IP PTY LTD, priority 2021, published 2024).
“Also recorded” adds a separate entry of the source.

Tests used:
[1] = tested on: mild to moderate flares of ulcerative colitis; conditions: cited from earlier work
[2] = tested on: T84 cells; assay: TEER recovery of barrier integrity after IFNγ (Maestro Pro system); format: cell-based; conditions: IFNγ for 72 hours, then treatment; extract relative to YG/V control
Protocol: The ability of MH23 to promote recovery of barrier integrity was also assessed by using the Maestro Pro system. Briefly, T84 cells were grown in (DMEM/F12) supplemented with 10% heat-inactivated foetal bovine serum and 1% Penicillin-Streptomycin in T75 flasks at 37° C., 5% C02 until approximately 75% confluent. Cells were seeded at a density of 0.1×10^6 cells in a total of 0.2 mL/well in 96-well CytoView-Z plates and incubated at 37° C., 5% C02 in the Maestro Pro system (Axion BioSystems, Atlanta, GA, USA). Media was refreshed every three days. Once stabile TEER measurements had been established (approximately 100 h after seeding), cells were stimulated with recombinant human IFNγ (100 ng/mL; R&D systems, Minneapolis, MN, USA). At 72 h post-stimulation, cells were washed with dPBS (ThermoFisher Scientific, Waltham, MA, USA) and media was replaced with DMEM/F12 only, or DMEM/F12 supplemented with Pyrrolidine dithiocarbamate (PDTC; 50 μM), 1×YG/V media control or 1×MH23-3 bacterial culture supernatant extracts prepared using Amberlite XAD-7 resin as previously outlined. All conditions were analysed as quadruplicates. At 5 h post-treatment, TEER measurements were recorded, and the observed effect of treatment was presented as the percentage difference in TEER value compared to the control (untreated T84 cells). Statistical significance was determined by unpaired t-test.

[3] = tested on: IL-8 secretion in the human gut epithelial HCT116 cell line; assay: IL-8 secretion ELISA in IL-1β treated HCT116 cells (NF-κB activation); format: cell-based; conditions: HCT116 cells treated with IL-1β; cell free CS relative to the medium control
Protocol: For the ELISA assays, 1×10^4 cells/well of HCT116 cells were seeded in duplicate 96 well plates. HCT116 cells were treated with IL-1β (10 ng) and indole-3-carbinol (5 μM) or culture supernatant (10% v/v) as appropriate and incubated at 37° C. for 16 hours. Then, cell supernatants were collected and analysed using an IL-8 human uncoated ELISA Kit according to the manufacturer's instructions.

[4] = tested on: C57BL/6 female mice; assay: Acute murine model of DSS-induced gut barrier dysfunction (3% DSS); format: in vivo, mouse
Protocol: (§1) M. faecis and F. prausnitzii strains were grown to early stationary phase in TY medium. The cell density of the individual cultures was calculated using a Helber Counting Chamber. To prepare the bacterial gavage solutions, individual cultures were centrifuged under a layer of sterile heavy mineral oil at 5,000 g for 10 minutes and the cell-free supernatant was then discarded. The cell pellets were washed in 1.5 mL of sterile anaerobic buffered diluent (38 mL/L each of salt solutions 2 & 3 (McSweeney et al., 2005), 1 mL/L of 0.1% (w/v) resazurin solution, 1 g/L L-cysteine) and then centrifuged again. Finally, the washed cell pellet was resuspended in half strength glycerol solution (15% v/v glycerol solution in anoxic buffered diluent) to a final concentration of 1×10^9 cells/mL, aliquoted and frozen at −80° C. until required. The viability of the cell preparations was confirmed by thawing a single aliquot and streaking on an agar plate. The identity and purity of the individual strain preparations was confirmed by whole genome sequencing.
(§2) Six-week-old C57BL/6 female mice purchased from Animal Resources Centres (Western Australia, Australia) were randomised and then co-housed for seven days prior to experimentation. To induce gut barrier dysfunction, mice were treated with 3% DSS ad libiteum in the drinking water for six days. Naïve age matched control mice were processed and received DSS free drinking water. All treatments started one day prior to provision of DSS and all mice were sacrificed two days after the final DSS treatment. For the treatments, mice were anesthetised with isofluorane and orally gavaged with 200 μl of bacterial preparations or vehicle control. Prednisone (2 mg/kg) was administered following anesthetisation by intraperitoneal injection. Body weights and stool consistency were recorded daily. Stool samples were collected daily. Following sacrifice, the colon, liver and spleen were collected for analysis. Blood was collected by cardiac puncture. In the therapeutic model, six-week-old C57BL/6 female mice purchased from Animal Resources Centres (Western Australia, Australia) were randomised and then co-housed for seven days prior to experimentation. To induce gut barrier dysfunction, mice were treated with 2.5% DSS ad libiteum in the drinking water for six days. Naïve age matched control mice were processed and received DSS free drinking water. All treatments started two days prior to completion of the DSS treatments and all mice were sacrificed five days after the final DSS treatment. For the treatments, mice were anesthetised with isofluorane and orally gavaged with 200 μl of bacterial preparations or vehicle control. Prednisone (2 mg/kg) was administered following anesthetisation by intraperitoneal injection. […]

[5] = tested on: C57BL/6 female mice; assay: Therapeutic model of DSS induced murine colitis (2.5% DSS); format: in vivo, mouse; conditions: 2.5% DSS therapeutic model
Protocol: as §1, §2

[6] = tested on: IL-23 mediated activation of STAT3; assay: HEK-Blue IL-23 reporter cell line STAT3 inducible SEAP reporter assay; format: cell-based, human; conditions: cell free culture supernatant (strains grown in TY medium); tofacitinib as inhibitor control
Protocol: To assess STAT3 suppressive activity, three independent colonies were inoculated and grown until early stationary phase. Then, each seed culture broth was used to inoculate two technical replicates each generating six technical replicates from three biological replicates. The technical replicates were grown until early stationary phase and then cell free culture supernatant was harvested as previously described (Giri et al., 2019). Culture supernatants were size fractionated by passing through a 3 kDa CENTRICON® column according to the manufacturer's (Merck Millipore) instructions.
STAT3 activity was assessed using the HEK Blue IL-23 cell line (Invivogen). Briefly, 50,000 cells per well were seeded in triplicate in a 96-well plate 24 hours prior to the start of the assay. Bacteria supernatant or sterile bacterial medium were mixed at a final concentration of 10%, 25%, or 50% v/v with recombinant human IL-23 (rhIL-23, R&D systems) at a final concentration of 5 ng/mL. This mixture was then added directly to the cells and incubated at 37° C. for 6 hours. […] STAT3 regulated SEAP reporter activity was assessed using Quanti Blue solution as recommended by the manufacturer (Invivogen). […] Cytotoxicity was assessed using MTT assay. […] Cytotoxicity was assessed by measuring absorbance at 540 nm as recommended by the manufacturer (Invitrogen, Thermo Fisher, Australia).

[7] = tested on: male BALB/c mice; assay: Acute murine model of TNBS-induced colitis; format: in vivo, mouse
Protocol: Groups of 5 or 10 male BALB/c mice were used. Mice were fasted overnight (Day 1) before 2,4,6-Trinitrobenzene sulfonic acid solution (TNBS challenge on Day 2. Distal colitis was induced by intracolonic instillation of TNBS (1 mg in 0.1 mL 50% ethanol) after which, animals were kept in a vertical position for 30 seconds to ensure that the solution remained in the colon. For the treatments, mice were orally gavaged with 200 μl of M. faecis MH23-3 at 1×10^9 cells/day or vehicle (sterile glycerol and phosphate salt solution) starting from Day 1 (i.e., 1 day before TNBS) to Day 5 for a total of 5 consecutive days (Days 1-5). The positive control Cyclosporin A was given at 75 mg/kg by oral gavage once daily from Day 1 (i.e., 1 day before TNBS) to Day 4 for a total of 4 consecutive days (Days 1-4). On the Day of TNBS challenge, vehicle, M. faecis MH-23.3 and Cyclosporine A were given at 2 hours before TNBS. Animals were sacrificed on Day 5; blood was collected from all animals by cardiac puncture. The colon tissue was also harvested and snap frozen with liquid nitrogen for cytokine measurement. On Day 5, the mice were euthanized by CO2 asphyxiation. Each colon was removed, rinsed, and then cut from 4 cm from the anus. The tissue sections were fixed in 10% formalin and kept in 70% ethanol for histopathology. […]

Compound: Nc1ccc(O)c(C(=O)O)c1 [Mesalmine]
- response rates [1]: 40%-70%

Compound: S=C(S)N1CCCC1 [PDTC, Pyrrolidine dithiocarbamate]
- TEER after IFNγ treatment (restoration of barrier integrity) [2]: ameliorated

Compound: OCc1c[nH]c2ccccc12 [indole-3-carbinol]
- IL-8 secretion [3]: prevented

Compound: C[C@]12C=CC(=O)C=C1CC[C@@H]1[C@@H]2C(=O)C[C@@]2(C)[C@H]1CC[C@]2(O)C(=O)CO [prednisone]
- disease pathology / histopathological score [4]: significant improvement
- epithelial injury [4]: ameliorated
- inflammation score [4]: ameliorated
- DSS-induced weight loss ([4]; daily treatment): exacerbated
- epithelial injury [5]: ameliorated
- inflammation score [5]: ameliorated
- pathology / histopathological score [5]: ameliorated
- endoscopic disease activity ([5]; relative to the vehicle treatment group): significant reduction

Compound: C[C@@H]1CCN(C(=O)CC#N)C[C@@H]1N(C)c1ncnc2[nH]ccc12 [tofacitinib]
- IL-23 mediated STAT3 activation (SEAP reporter activity) [6]: prevented; also recorded: inhibits

Compound: cyclosporine A
- TNBS-induced histological damage [7]: ameliorated
